In patent US9453014B2, “Cyclic amide derivatives as inhibitors of 11-β-hydroxysteroid dehydrogenase and uses thereof” (CONNEXIOS LIFE SCIENCES PVT. LTD., priority 2011, dated 2016) one finds safety and tolerability and IC50 data, which are given here for eight molecules.

T1 sequence (P28845 whole entry): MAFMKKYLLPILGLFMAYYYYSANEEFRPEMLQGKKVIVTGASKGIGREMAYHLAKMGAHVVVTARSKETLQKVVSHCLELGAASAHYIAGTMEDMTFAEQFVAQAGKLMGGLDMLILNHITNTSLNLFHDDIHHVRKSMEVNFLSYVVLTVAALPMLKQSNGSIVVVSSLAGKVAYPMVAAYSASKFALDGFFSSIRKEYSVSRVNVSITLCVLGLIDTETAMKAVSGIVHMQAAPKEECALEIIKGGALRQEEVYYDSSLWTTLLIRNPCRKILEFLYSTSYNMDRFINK

System in the first data set: not given
Experiment: not given
The conditions noted are these: phase IIa trial, type 2 diabetes, 28-days; cited from earlier work.
For `CNC(=O)c1ccc(-c2ccc(C3(C(=O)N4CC[C@@]5(C4)OC(=O)c4ccccc45)CC3)cc2)cn1` [INCB13739], the safety and tolerability entry is “safe and well tolerated without any serious side effects and hypoglycemia”.

A further data set addresses T1, human full length HSD11 β 1 (Homo sapiens, UniProt P28845).
T1 construct: transient expression of human full length HSD11 β 1 expression vector; host or cells: CHO cells (transient transfection)
Briefly: In Vitro HSD11β1 Inhibition Assay. The conditions noted are these: CHO cells transiently expressing human HSD11β1; 200 nM cortisone+500 uM NADPH overnight; cortisone to cortisol by LC/MS-MS; read-out: 11βHSD1 (IC50). The data set is classed as cell-based. In short, it runs like this: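 CHO cells transiently transfected with human full-length HSD11β1 were re-seeded after 24 h and, 24 h later, incubated overnight with 200 nM cortisone plus 500 uM NADPH and inhibitor. Cortisone-to-cortisol conversion was measured by LC/MS-MS. IC50 from an 8-point log concentration–inhibition curve.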
In the case of `CC(CC(=O)N1CCCC2CC(C(=O)O)CCC21)c1c[nH]c2cccc(-c3ccco3)c12` (centres unmarked) [Compound 229, 1-{3-[4-(furan-2-yl)-1H-indol-3-yl]butanoyl}decahydroquinoline-6-carboxylic acid], the half-inhibitory concentration (IC50) lay in the range of 100 to 150 nM.

In the case of `O=C(O)C1CCN(C(=O)CC(c2cccs2)c2c[nH]c3cccc(Cl)c23)C2CCCCC12` (centres unmarked) [Example 184, 1-[3-(4-chloro-1H-indol-3-yl)-3-(thiophen-2-yl)propanoyl]decahydroquinoline-4-carboxylic acid], the IC50 was greater than 250 nM. Take `Cc1cccc2c1c(CCC(=O)N1CCO[C@@H]3CCCC[C@@H]31)cn2C` (relative stereo) [Compound 66, 3-(1,4-dimethyl-1H-indol-3-yl)-1-[cis-(4a,8a)-octahydro-4H-1,4-benzoxazin-4-yl]propan-1-one]: the IC50 is less than 100 nM. In the case of `CC(C)(c1c[nH]c2ccccc12)C(C#N)C(=O)N1CCCC2CCCCC21` (centres unmarked) [Example 110, 3-(1H-indol-3-yl)-3-methyl-2-(octahydroquinolin-1(2H)-ylcarbonyl)butanenitrile], the IC50 is greater than 250 nM. On the same count and under the same terms, the value for `CC(CC(=O)N1CCCC2CCCCC21)c1c[nH]c2ccccc12` (single isomer, unassigned) [Example 124, 3-(1H-indol-3-yl)-1-(octahydroquinolin-1(2H)-yl)butan-1-one] was 100 to 150 nM; that for `CC(CC(=O)N1CCCC2CCCCC21)c1c[nH]c2ccccc12` (centres unmarked) [Compound 1, 3-(1H-indol-3-yl)-1-(octahydroquinolin-1(2H)-yl)butan-1-one] was less than 100 nM.

As for `Cn1cc(C(C)(C)CC(=O)N2CCCC3(C)CCCCC23)c2ccccc21` (centres unmarked) [Compound 59, 3-methyl-3-(1-methyl-1H-indol-3-yl)-1-(4a-methyloctahydroquinolin-1 (2H)-yl)butan-1-one], the IC50 was in the range of 150 to 200 nM.
